Experimental findings from patent US9346812B2, “Substituted pyrrolopyrimidine compounds, compositions thereof, and methods of treatment therewith” (Signal Pharmaceutical LLC, priority 2013, dated 2016) are described below.

This assay has as its system CAL51 cell proliferation. Description: Cell Titer Glo Proliferation Assay (CAL51). It counts as cell-based, human. The conditions noted are these: Homo sapiens, CAL-51; CAL51 cell proliferation, 72 h, Cell Titer Glo luminescence; read-out: Act. Level. The procedure:
Cell Titer Glo Proliferation Assay. Triple negative breast cancer cell line CAL51 was purchased from DSMZ. […] Allcell lines were maintained in growth media consisting of 90% high glucose Dulbecco's Modified Eagle Medium or RPMI1640 (Invitrogen), 10% fetal bovine serum (Hyclone), and 2 mM L-glutamine (Invitrogen). […] After overnight culture, compound stock (30 mM) was diluted serially in DMSO, further diluted in growth media, and was added to each well as a 10× concentrated solution in a volume of 11 μL, mixed, and allowed to incubate with cells. The compound vehicle (DMSO) was maintained at a final concentration of 0.2% in all wells. After 72 h, 100 μL of Cell Titer Glo solution (Promega) was added to each well of the 96-well plate. The plate was placed on a shaker for 2 minutes. After 10 minutes incubation, the luminescence signal was detected with Envision microplate reader (Perkin Elmer).

`Cc1nc2ccc(-c3c[nH]c4nc(Nc5ccc(C(=O)N(C)C)cc5C)nc(O[C@@H]5CCOC5)c34)cc2o1` [Example 99, (R)-N,N,3-trimethyl-4-(5-(2-methylbenzo[d]oxazol-6-yl)-4-(tetrahydrofuran-3-yloxy)-7H-pyrrolo[2,3-d]pyrimidin-2-ylamino)benzamide]: the IC50 was below 100 nM.
For the compound `COc1cc(C(=O)NC2(C)COC2)ccc1Nc1nc(OC2CCCC2)c2c(-c3ccc4nc(C)oc4c3)c[nH]c2n1` [Example 301, 4-(4-(cyclopentyloxy)-5-(2-methylbenzo[d]oxazol-6-yl)-7H-pyrrolo[2,3-d]pyrimidin-2-ylamino)-3-methoxy-N-(3-methyloxetan-3-yl)benzamide], the IC50 lay in the range of 100 to 400 nM.
The figure for `Cc1cc(C(=O)N(C)C)ccc1Nc1nc(OC2CCOCC2)c2c(-c3ncco3)c[nH]c2n1` [Example 115, N,N,3-trimethyl-4-(5-(oxazol-2-yl)-4-(tetrahydro-2H-pyran-4-yloxy)-7H-pyrrolo[2,3-d]pyrimidin-2-ylamino)benzamide] is 400 to 1000 nM; for `CNC(=O)c1ccc(Nc2nc(OC3CCOCC3)c3c(-c4ccc(-c5nc(C)c[nH]5)cc4)c[nH]c3n2)c(OC)c1` [Example 207, 3-methoxy-N-methyl-4-(5-(4-(4-methyl-1H-imidazol-2-yl)phenyl)-4-(tetrahydro-2H-pyran-4-yloxy)-7H-pyrrolo[2,3-d]pyrimidin-2-ylamino)benzamide] it is below 100 nM; for `CC[C@H](C)Oc1nc(Nc2ccc(C(=O)NCCO)cc2OC)nc2[nH]cc(-c3cnn(C)c3)c12` [Example 286, (S)-4-(4-sec-butoxy-5-(1-methyl-1H-pyrazol-4-yl)-7H-pyrrolo [2,3-d]pyrimidin-2-ylamino)-N-(2-hydroxyethyl)-3-methoxybenzamide] it is 100 to 400 nM.
For the compound `COc1cc(C(=O)NC2CC(O)C2)ccc1Nc1nc(OC2CCCC2)c2c(-c3ccc4nc(C)oc4c3)c[nH]c2n1` (stereo not shown) [Example 238, 4-(4-(cyclopentyloxy)-5-(2-methylbenzo[d]oxazol-6-yl)-7H-pyrrolo[2,3-d]pyrimidin-2-ylamino)-N-((1s,3s)-3-hydroxycyclobutyl)-3-methoxybenzamide], the IC50 was below 100 nM.
Next, `CNC(=O)c1ccc(Nc2nc(OC)c3c(-c4ccc(OC)nc4)c[nH]c3n2)c(OC)c1` [Example 118, 3-methoxy-4-(4-methoxy-5-(6-methoxypyridin-3-yl)-7H-pyrrolo [2,3-d]pyrimidin-2-ylamino)-N-methylbenzamide]: 100 to 400 nM.
Next, `CNC(=O)c1ccc(Nc2nc(OC3CCOCC3)c3c(-c4ncco4)c[nH]c3n2)c(OC)c1` [Example 173, 3-methoxy-N-methyl-4-(5-(oxazol-2-yl)-4-(tetrahydro-2H-pyran-4-yloxy)-7H-pyrrolo[2,3-d]pyrimidin-2-ylamino)benzamide]: 400 to 1000 nM.
Take `COc1nc(Nc2ccc(C(=O)N(C)C)cc2Cl)nc2[nH]cc(-c3ccc4[nH]c(C)nc4c3)c12` [Example 83, 3-chloro-4-(4-methoxy-5-(2-methyl-1H-benzo[d]imidazol-5-yl)-7H-pyrrolo[2,3-d]pyrimidin-2-ylamino)-N,N-dimethylbenzamide]: the IC50 is below 100 nM.
With `CNC(=O)c1ccc(Nc2nc(OC3CCOCC3)c3c(-c4ccncn4)c[nH]c3n2)c(OC)c1` [Example 270, 3-methoxy-N-methyl-4-(5-(pyrimidin-4-yl)-4-(tetrahydro-2H-pyran-4-yloxy)-7H-pyrrolo[2,3-d]pyrimidin-2-ylamino)benzamide], the IC50 is 100 to 400 nM.
Next, `CNC(=O)c1ccc(-c2c[nH]c3nc(Nc4ccc(C(=O)NC5COC5)cc4OC)nc(OC4CCOCC4)c23)cc1` [Example 310, 3-methoxy-4-(5-(4-(methylcarbamoyl)phenyl)-4-(tetrahydro-2H-pyran-4-yloxy)-7H-pyrrolo[2,3-d]pyrimidin-2-ylamino)-N-(oxetan-3-yl) benzamide]: below 100 nM.
Consider `Cc1nc2ccc(-c3c[nH]c4nc(Nc5ccc(C(=O)N(C)C)cc5C)nc(NC5CCOCC5)c34)cc2o1` [Example 69, N,N,3-trimethyl-4-(5-(2-methylbenzo[d]oxazol-6-yl)-4-(tetrahydro-2H-pyran-4-ylamino)-7H-pyrrolo[2,3-d]pyrimidin-2-ylamino)benzamide], for which the IC50 is 100 to 400 nM.
The figure for `CNC(=O)c1ccc(Nc2nc(OC)c3c(-c4ccnc(C)c4)c[nH]c3n2)c(OC)c1` [Example 166, 3-methoxy-4-(4-methoxy-5-(2-methylpyridin-4-yl)-7H-pyrrolo [2,3-d]pyrimidin-2-ylamino)-N-methylbenzamide] is below 100 nM; for `CNC(=O)c1ccc(Nc2nc(OC3CCOCC3)c3c(-c4ccncc4)c[nH]c3n2)c(C(C)C)c1` [Example 200, 3-isopropyl-N-methyl-4-(5-(pyridin-4-yl)-4-(tetrahydro-2H-pyran-4-yloxy)-7H-pyrrolo[2,3-d]pyrimidin-2-ylamino) benzamide] it is 100 to 400 nM; for `COc1cc(C(=O)N(C)C2CCOCC2)ccc1Nc1nc(OC2CCCC2)c2c(-c3ccc4nc(C)oc4c3)c[nH]c2n1` [Example 250, 4-(4-(cyclopentyloxy)-5-(2-methylbenzo[d]oxazol-6-yl)-7H-pyrrolo[2,3-d]pyrimidin-2-ylamino)-3-methoxy-N-methyl-N-(tetrahydro-2H-pyran-4-yl)benzamide] it is 100 to 400 nM.
With `COc1cc(CN)ccc1Nc1nc(OC2CCCC2)c2c(-c3ccc(O)cc3)c[nH]c2n1` [Example 52, 4-(2-(4-(aminomethyl)-2-methoxyphenylamino)-4-(cyclopentyloxy)-7H-pyrrolo[2,3-d]pyrimidin-5-yl)phenol], the IC50 fell in the range of 100 to 400 nM.
Next, `CNC(=O)c1ccc(Nc2nc(OC3CCCC3)c3c(-c4ccc5nc(C)oc5c4)c[nH]c3n2)c(C)c1` [Example 94, 4-(4-(cyclopentyloxy)-5-(2-methylbenzo[d]oxazol-6-yl)-7H-pyrrolo[2,3-d]pyrimidin-2-ylamino)-N,3-dimethylbenzamide]: 400 to 1000 nM; `CNC(=O)c1ccc(Nc2nc(OC3CCCC3)c3c(-c4cn[nH]c4)c[nH]c3n2)c(OC)c1` [Example 82, 4-(4-(cyclopentyloxy)-5-(1H-pyrazol-4-yl)-7H-pyrrolo[2,3-d]pyrimidin-2-ylamino)-3-methoxy-N-methylbenzamide]: below 100 nM; `COc1ccccc1Nc1nc(OC2CCCC2)c2c(-c3ccc4nc(C)oc4c3)c[nH]c2n1` [Example 103, 4-(cyclopentyloxy)-N-(2-methoxyphenyl)-5-(2-methylbenzo[d]oxazol-6-yl)-7H-pyrrolo[2,3-d]pyrimidin-2-amine]: 100 to 400 nM.
For the compound `CNC(=O)c1ccc(Nc2nc(OC3CCCC3)c3c(-c4cncc(OC)c4)c[nH]c3n2)c(Cl)c1` [Example 34, 3-chloro-4-(4-(cyclopentyloxy)-5-(5-methoxypyridin-3-yl)-7H-pyrrolo [2,3-d]pyrimidin-2-ylamino)-N-methylbenzamide], the IC50 lay within 100 to 400 nM.
On to `CNC(=O)c1ccc(-c2c[nH]c3nc(Nc4ccnn4C)nc(OC4CCOCC4)c23)cc1` [Example 317, N-methyl-4-(2-(1-methyl-1H-pyrazol-5-ylamino)-4-(tetrahydro-2H-pyran-4-yloxy)-7H-pyrrolo [2,3-d]pyrimidin-5-yl)benzamide], for which the IC50 lay in the range of 400 to 1000 nM.
The figure for `COc1cc(C(=O)N(C)CC2(C)COC2)ccc1Nc1nc(OC2CCCC2)c2c(-c3ccc4nc(C)oc4c3)c[nH]c2n1` [Example 271, 4-(4-(cyclopentyloxy)-5-(2-methylbenzo[d]oxazol-6-yl)-7H-pyrrolo[2,3-d]pyrimidin-2-ylamino)-3-methoxy-N-methyl-N-((3-methyloxetan-3-yl)methyl)benzamide] is below 100 nM.
Take `CNC(=O)c1ccc(Nc2nc(OC3CCCC3)c3c(-c4cccc(CO)c4)c[nH]c3n2)c(OC)c1` [Example 26, 4-(4-(cyclopentyloxy)-5-(3-(hydroxymethyl)phenyl)-7H-pyrrolo[2,3-d]pyrimidin-2-ylamino)-3-methoxy-N-methylbenzamide]: the IC50 is below 100 nM.
The figure for `COc1nc(Nc2ccc3[nH]ncc3c2)nc2[nH]cc(-c3ccc4nc(C)oc4c3)c12` [Example 87, N-(1H-indazol-5-yl)-4-methoxy-5-(2-methylbenzo[d]oxazol-6-yl)-7H-pyrrolo[2,3-d]pyrimidin-2-amine] is 100 to 400 nM; for `CCOc1ccc(-c2c[nH]c3nc(Nc4ccc(C(=O)NC)cc4C)nc(O[C@H]4CCOC4)c23)cn1` [Example 162, (S)-4-(5-(6-ethoxypyridin-3-yl)-4-(tetrahydrofuran-3-yloxy)-7H-pyrrolo[2,3-d]pyrimidin-2-ylamino)-N,3-dimethylbenzamide] it is 100 to 400 nM; for `COc1cc(C(=O)N2C[C@@H](OC)[C@H](OC)C2)ccc1Nc1nc(OC2CCCC2)c2c(-c3ccc4nc(C)oc4c3)c[nH]c2n1` [Example 311, (4-(4-(cyclopentyloxy)-5-(2-methylbenzo[d]oxazol-6-yl)-7H-pyrrolo[2,3-d]pyrimidin-2-ylamino)-3-methoxyphenyl) ((3R,4R)-3,4-dimethoxypyrrolidin-1-yl)methanone] it is below 100 nM.
The figure for `CNC(=O)c1ccc(Nc2nc(OC3CCOCC3)c3c(-c4ccc(-c5nc(C)c(C)[nH]5)cc4)c[nH]c3n2)c(OC)c1` [Example 197, 4-(5-(4-(4,5-dimethyl-1H-imidazol-2-yl)phenyl)-4-(tetrahydro-2H-pyran-4-yloxy)-7H-pyrrolo[2,3-d]pyrimidin-2-ylamino)-3-methoxy-N-methylbenzamide] is 100 to 400 nM.
Next, `COc1nc(Nc2ccc(C(=O)N(C)C)cc2C)nc2[nH]cc(-c3ccncc3)c12` [Example 89, 4-(4-methoxy-5-(pyridin-4-yl)-7H-pyrrolo[2,3-d]pyrimidin-2-ylamino)-N,N,3-trimethylbenzamide]: 100 to 400 nM.
